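Following 48 hours of exposure in 96-well plates, responses at five concentrations were used to interpolate endpoints linearly. At the GI50, growth is halved.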 Calls of active or inactive are those of the source. Rule as the data show it: active = GI50 up to about 1.1 µM and inactive = higher.
How the values were obtained:
Test in all cases: DTP human tumour cell line panel, 48 h
KM-20L2 = tested on: KM-20L2
LXFL 529 = tested on: LXFL 529
SNB-78 = tested on: SNB-78
XF498 = tested on: XF498
DMS-114 = tested on: DMS-114
DMS-273 = tested on: DMS-273
HOP-18 = tested on: HOP-18
M19-MEL = tested on: M19-MEL
RXF 631 = tested on: RXF 631

| Structure (SMILES) | GI50 (KM-20L2) | GI50 (LXFL 529) | GI50 (SNB-78) | GI50 (XF498) | GI50 (DMS-114) | GI50 (DMS-273) | GI50 (HOP-18) | GI50 (M19-MEL) | GI50 (RXF 631) |
| --- | --- | --- | --- | --- | --- | --- | --- | --- | --- |
| COc1ccc(C[C@@H]2Cc3cc(OC)c(OC)cc3CN2C)cc1 | > 100 µM (inactive) | > 100 µM (inactive) | > 100 µM (inactive) | 53.5 µM (inactive) |  |  |  |  |  |
| CCOc1ccc(/N=N/c2ccc3oc(=O)c(/C(C)=N/NC(=O)CC(=O)Nc4cccc(OC)c4)cc3c2)cc1 | > 31.6 µM (inactive) | 11 µM (inactive) | 23.6 µM (inactive) | 17.5 µM (inactive) | 14.3 µM (inactive) | 24.8 µM (inactive) | 17.1 µM (inactive) | 23.8 µM (inactive) |  |
| O=S(=O)(OI(OI(OS(=O)(=O)C(F)(F)F)c1ccccc1)c1ccccc1)C(F)(F)F | 71.6 µM (inactive) | 26.1 µM (inactive) | 50.6 µM (inactive) |  | 5.18 µM (inactive) | 23.7 µM (inactive) |  | 40.7 µM (inactive) |  |
| Cc1ccc(C2=CC(=O)c3ccccc3C2=O)n1-c1ccccc1 | > 100 µM (inactive) | 72.4 µM (inactive) | > 100 µM (inactive) | 48.1 µM (inactive) | 24.6 µM (inactive) | > 100 µM (inactive) | > 100 µM (inactive) | > 100 µM (inactive) |  |
| CN(C)c1ccc2c(NCCCCCCNc3ccnc4cc(N(C)C)ccc34)ccnc2c1 |  |  | 4.79 µM (inactive) | 2.79 µM (inactive) | 6.75 µM (inactive) | 4.03 µM (inactive) |  | 13.7 µM (inactive) | 51.4 µM (inactive) |
| COC(=O)/C(C#N)=C1\CCC(C(=O)OC)N1C (stereo unspecified) | > 100 µM (inactive) |  | > 100 µM (inactive) | > 100 µM (inactive) | > 100 µM (inactive) | > 100 µM (inactive) |  | > 100 µM (inactive) | > 100 µM (inactive) |
| CC(/C(=N/NC(=O)C(N)=O)c1c(Cl)ccc(Cl)c1O)C1(O)C(=O)Nc2ccccc21 (stereo unspecified) | 56.2 µM (inactive) | 32.9 µM (inactive) | > 100 µM (inactive) |  | 34.4 µM (inactive) | 27.4 µM (inactive) | 34.8 µM (inactive) | 40.4 µM (inactive) | 32.1 µM (inactive) |
| O=c1c2cc(Br)ccc2nc(-c2ccccc2Cl)n1NCC1(O)OCC(O)C(O)C1O (stereo unspecified) | > 100 µM (inactive) | 82.8 µM (inactive) | > 100 µM (inactive) |  | 75.9 µM (inactive) | > 100 µM (inactive) |  | > 100 µM (inactive) |  |
| Cc1cccc(N2C(=O)C(=O)C(c3nc4ccccc4s3)/C(=N/NC(=S)NN)C2=O)c1C (stereo unspecified) | > 100 µM (inactive) | > 100 µM (inactive) | > 100 µM (inactive) | > 100 µM (inactive) | > 100 µM (inactive) | > 100 µM (inactive) |  | > 100 µM (inactive) | > 100 µM (inactive) |
| COc1cc(OC)c(C2CC=Cc3c(OC)cc(OC)c(OC)c32)cc1OC (stereo unspecified) | > 100 µM (inactive) | > 100 µM (inactive) | > 100 µM (inactive) | > 100 µM (inactive) | > 100 µM (inactive) | > 100 µM (inactive) | > 100 µM (inactive) | > 100 µM (inactive) |  |
| COc1c(C(=O)c2ccc([N+](=O)[O-])cc2)cc(C(C)(C)C)cc1C(C)(C)C | 35.6 µM (inactive) | 31.6 µM (inactive) | 46.6 µM (inactive) | 22.2 µM (inactive) | 22.1 µM (inactive) | 30.2 µM (inactive) | > 100 µM (inactive) | 30.1 µM (inactive) |  |
| COc1cc2ccn3c4cc(OC)c(OC)cc4cc3c2cc1OC | > 100 µM (inactive) | 78.7 µM (inactive) | > 100 µM (inactive) | 7.16 µM (inactive) | 50.6 µM (inactive) |  |  | > 100 µM (inactive) |  |
| CCCCC1(C)C=C/C(=C2/C(=O)O/C(=C\C(=O)O)C2=O)O1 (stereo unspecified) | > 100 µM (inactive) | > 100 µM (inactive) | > 100 µM (inactive) | > 100 µM (inactive) |  | > 100 µM (inactive) | > 100 µM (inactive) | > 100 µM (inactive) | > 100 µM (inactive) |
| COc1cc(OC(=O)c2ccccc2)cc2c1C(=O)C=CC2=O | > 56.9 µM (inactive) | 12.7 µM (inactive) | 20.5 µM (inactive) | 17.6 µM (inactive) | 10.9 µM (inactive) | 21.8 µM (inactive) | 16.6 µM (inactive) | 11 µM (inactive) | 20 µM (inactive) |
| O=[N+]([O-])c1cccc(C2ON2C2CCCCC2)c1 (stereo unspecified) | 22.3 µM (inactive) | 20.7 µM (inactive) | 27.4 µM (inactive) |  | 19.1 µM (inactive) | 18.4 µM (inactive) | 30.8 µM (inactive) | 19.6 µM (inactive) |  |
| N#Cc1ccccc1NC(=O)C(=O)C(C(=O)c1ccncc1)C1OC(=O)c2ccccc21 (stereo unspecified) | > 100 µM (inactive) | > 100 µM (inactive) | > 100 µM (inactive) | > 100 µM (inactive) | > 100 µM (inactive) |  | > 100 µM (inactive) | > 100 µM (inactive) | > 100 µM (inactive) |
| CCOC(=O)/C(C#N)=C\C=C1/C=CN=C2NCCN21 | > 100 µM (inactive) | > 100 µM (inactive) | > 100 µM (inactive) | > 100 µM (inactive) | > 100 µM (inactive) | > 100 µM (inactive) | > 100 µM (inactive) | > 100 µM (inactive) |  |
| OCc1c[te]c(-c2ccccc2)c1 | > 100 µM (inactive) | > 100 µM (inactive) | > 100 µM (inactive) | 0.56 µM (active) | 26.8 µM (inactive) | 51.4 µM (inactive) |  | 33.9 µM (inactive) | 55.6 µM (inactive) |
| COc1cc(C2C(C(=O)Nc3ccccc3)=C(C)NC(C)=C2C(=O)Nc2ccccc2)ccc1O | 20.1 µM (inactive) | 24.3 µM (inactive) | 53.5 µM (inactive) | 34.2 µM (inactive) | 42 µM (inactive) |  | 99.3 µM (inactive) | 36.2 µM (inactive) |  |
| O=C1C=CC(=O)c2cc(Sc3ccccc3)c(=O)c(Sc3ccccc3)cc21 | > 100 µM (inactive) | 26.1 µM (inactive) |  | 86.3 µM (inactive) | 22.2 µM (inactive) | > 100 µM (inactive) | 71.8 µM (inactive) | 48.5 µM (inactive) |  |
| CCCCCC/C(CC(=O)CCC(=O)NCCc1ccccc1)=N\Nc1ccc([N+](=O)[O-])cc1[N+](=O)[O-] | > 100 µM (inactive) | 49.3 µM (inactive) | > 100 µM (inactive) |  | 20 µM (inactive) | > 100 µM (inactive) | 59.8 µM (inactive) | 54.5 µM (inactive) | 64.6 µM (inactive) |
| COC1=CC(C2c3cc4c(cc3[C@@H](Nc3ccc(F)cc3)C3COC(=O)[C@H]23)OCO4)=CC(=O)C1=O (stereo partly specified) | 25.7 µM (inactive) | 11.6 µM (inactive) | > 51.9 µM (inactive) | 5.98 µM (inactive) |  | 2.93 µM (inactive) |  | 15.4 µM (inactive) |  |
| CN(C)c1ccc(-c2cc(O)c3cc4c(cc3n2)OCO4)cc1 | > 100 µM (inactive) | > 100 µM (inactive) |  | > 100 µM (inactive) | > 100 µM (inactive) | > 100 µM (inactive) |  | > 100 µM (inactive) | > 100 µM (inactive) |
